What all share (assay type): biochemical
The target in experiment [1] is T1, PI3K γ (Homo sapiens, UniProt P48736).
T1 construct: purchased Sigma
Nature of the experiment: In vitro IC50, PI3K γ. The source says:
(§1) An exemplary system is PI 3-Kinase (human) HTRF™ Assay from Upstate.

Experiment [2] addresses T2, PI3K α (Homo sapiens, UniProt P42336).
T2 construct: purchased Upstate
Briefly: In vitro IC50, PI3K α.
From the text: as §1

Experiment [3] deals with PI3K β (Homo sapiens, UniProt P42338). Nature of the experiment: In vitro IC50, PI3K β.
Sequence of PI3K β (P42338 whole entry): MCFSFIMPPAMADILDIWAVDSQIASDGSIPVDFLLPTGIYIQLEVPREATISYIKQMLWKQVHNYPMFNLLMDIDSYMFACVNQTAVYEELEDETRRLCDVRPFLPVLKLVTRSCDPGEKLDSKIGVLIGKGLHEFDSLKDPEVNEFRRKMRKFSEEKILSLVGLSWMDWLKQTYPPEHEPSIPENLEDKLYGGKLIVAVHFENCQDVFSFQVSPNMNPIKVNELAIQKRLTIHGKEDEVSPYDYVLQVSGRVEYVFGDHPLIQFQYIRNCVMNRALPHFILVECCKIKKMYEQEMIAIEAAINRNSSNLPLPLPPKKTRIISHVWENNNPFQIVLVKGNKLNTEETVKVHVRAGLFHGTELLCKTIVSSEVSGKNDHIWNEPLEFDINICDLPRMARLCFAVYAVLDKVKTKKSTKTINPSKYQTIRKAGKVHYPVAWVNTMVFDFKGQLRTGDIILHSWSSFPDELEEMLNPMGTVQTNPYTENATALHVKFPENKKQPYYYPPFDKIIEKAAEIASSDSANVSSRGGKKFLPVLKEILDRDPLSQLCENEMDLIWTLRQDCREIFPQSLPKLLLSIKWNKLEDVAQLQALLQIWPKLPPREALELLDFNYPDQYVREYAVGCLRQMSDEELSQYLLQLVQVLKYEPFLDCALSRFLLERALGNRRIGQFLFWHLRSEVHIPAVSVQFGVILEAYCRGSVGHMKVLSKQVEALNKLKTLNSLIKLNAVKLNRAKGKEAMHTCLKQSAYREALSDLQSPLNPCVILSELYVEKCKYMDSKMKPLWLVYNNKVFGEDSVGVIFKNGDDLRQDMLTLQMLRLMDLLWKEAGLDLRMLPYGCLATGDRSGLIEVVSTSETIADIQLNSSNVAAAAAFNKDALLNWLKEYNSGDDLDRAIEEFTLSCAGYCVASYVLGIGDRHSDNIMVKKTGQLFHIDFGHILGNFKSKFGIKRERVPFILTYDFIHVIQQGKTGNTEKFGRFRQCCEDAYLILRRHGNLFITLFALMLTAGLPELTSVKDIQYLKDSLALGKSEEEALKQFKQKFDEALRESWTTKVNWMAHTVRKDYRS
From the text: as §1

For experiment [4], the target named is PI3K δ (Homo sapiens, UniProt O00329). Nature of the experiment: In vitro IC50, PI3K δ. On the set-up: purchased Upstate.
Sequence of PI3K δ (O00329 whole entry): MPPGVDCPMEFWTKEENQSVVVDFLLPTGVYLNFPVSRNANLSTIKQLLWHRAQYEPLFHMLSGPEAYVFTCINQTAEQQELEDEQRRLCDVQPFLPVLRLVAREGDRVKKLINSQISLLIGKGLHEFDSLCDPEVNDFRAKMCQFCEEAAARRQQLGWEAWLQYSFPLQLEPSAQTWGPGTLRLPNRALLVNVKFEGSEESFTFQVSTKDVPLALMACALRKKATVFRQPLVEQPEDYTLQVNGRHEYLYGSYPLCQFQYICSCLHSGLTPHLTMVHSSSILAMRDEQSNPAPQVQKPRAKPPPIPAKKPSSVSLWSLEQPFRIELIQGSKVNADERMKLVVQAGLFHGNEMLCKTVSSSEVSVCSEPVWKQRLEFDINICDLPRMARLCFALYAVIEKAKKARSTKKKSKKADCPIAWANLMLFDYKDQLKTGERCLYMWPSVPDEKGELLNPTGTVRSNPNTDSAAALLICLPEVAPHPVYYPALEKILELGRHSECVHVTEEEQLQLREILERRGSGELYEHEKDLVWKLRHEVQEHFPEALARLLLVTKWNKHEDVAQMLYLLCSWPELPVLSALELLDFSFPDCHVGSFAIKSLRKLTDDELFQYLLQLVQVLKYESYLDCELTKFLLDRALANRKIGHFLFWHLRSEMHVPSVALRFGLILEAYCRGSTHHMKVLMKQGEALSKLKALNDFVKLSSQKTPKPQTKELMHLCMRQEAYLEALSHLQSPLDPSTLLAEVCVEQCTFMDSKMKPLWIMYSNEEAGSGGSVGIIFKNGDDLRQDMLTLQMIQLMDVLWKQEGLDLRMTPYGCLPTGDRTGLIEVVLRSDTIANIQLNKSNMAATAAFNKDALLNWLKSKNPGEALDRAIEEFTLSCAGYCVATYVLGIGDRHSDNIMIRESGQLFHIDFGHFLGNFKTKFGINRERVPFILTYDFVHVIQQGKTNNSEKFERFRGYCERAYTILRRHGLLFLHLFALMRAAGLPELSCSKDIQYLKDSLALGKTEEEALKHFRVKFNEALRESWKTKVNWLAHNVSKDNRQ
Sequence of PI3K δ (P27986 whole entry partner): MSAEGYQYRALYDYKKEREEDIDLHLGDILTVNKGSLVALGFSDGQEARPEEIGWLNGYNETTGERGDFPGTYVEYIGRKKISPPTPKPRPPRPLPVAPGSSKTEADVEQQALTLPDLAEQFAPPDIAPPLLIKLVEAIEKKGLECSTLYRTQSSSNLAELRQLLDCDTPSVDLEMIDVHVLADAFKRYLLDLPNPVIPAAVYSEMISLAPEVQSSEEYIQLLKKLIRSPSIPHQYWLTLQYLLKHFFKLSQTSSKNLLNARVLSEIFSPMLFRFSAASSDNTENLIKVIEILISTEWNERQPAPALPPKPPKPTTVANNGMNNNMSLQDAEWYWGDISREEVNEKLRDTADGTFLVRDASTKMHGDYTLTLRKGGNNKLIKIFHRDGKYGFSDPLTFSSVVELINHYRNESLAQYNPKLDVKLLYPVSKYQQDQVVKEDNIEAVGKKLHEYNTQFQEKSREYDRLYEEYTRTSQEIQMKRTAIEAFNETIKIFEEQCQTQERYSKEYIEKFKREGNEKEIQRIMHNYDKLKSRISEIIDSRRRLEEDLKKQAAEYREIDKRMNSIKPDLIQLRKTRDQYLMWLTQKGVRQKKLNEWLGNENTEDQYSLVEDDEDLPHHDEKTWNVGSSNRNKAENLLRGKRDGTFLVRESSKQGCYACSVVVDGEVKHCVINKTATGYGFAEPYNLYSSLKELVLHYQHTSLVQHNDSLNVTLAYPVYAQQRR
From the text: as §1

T1 sequence (P48736 whole entry): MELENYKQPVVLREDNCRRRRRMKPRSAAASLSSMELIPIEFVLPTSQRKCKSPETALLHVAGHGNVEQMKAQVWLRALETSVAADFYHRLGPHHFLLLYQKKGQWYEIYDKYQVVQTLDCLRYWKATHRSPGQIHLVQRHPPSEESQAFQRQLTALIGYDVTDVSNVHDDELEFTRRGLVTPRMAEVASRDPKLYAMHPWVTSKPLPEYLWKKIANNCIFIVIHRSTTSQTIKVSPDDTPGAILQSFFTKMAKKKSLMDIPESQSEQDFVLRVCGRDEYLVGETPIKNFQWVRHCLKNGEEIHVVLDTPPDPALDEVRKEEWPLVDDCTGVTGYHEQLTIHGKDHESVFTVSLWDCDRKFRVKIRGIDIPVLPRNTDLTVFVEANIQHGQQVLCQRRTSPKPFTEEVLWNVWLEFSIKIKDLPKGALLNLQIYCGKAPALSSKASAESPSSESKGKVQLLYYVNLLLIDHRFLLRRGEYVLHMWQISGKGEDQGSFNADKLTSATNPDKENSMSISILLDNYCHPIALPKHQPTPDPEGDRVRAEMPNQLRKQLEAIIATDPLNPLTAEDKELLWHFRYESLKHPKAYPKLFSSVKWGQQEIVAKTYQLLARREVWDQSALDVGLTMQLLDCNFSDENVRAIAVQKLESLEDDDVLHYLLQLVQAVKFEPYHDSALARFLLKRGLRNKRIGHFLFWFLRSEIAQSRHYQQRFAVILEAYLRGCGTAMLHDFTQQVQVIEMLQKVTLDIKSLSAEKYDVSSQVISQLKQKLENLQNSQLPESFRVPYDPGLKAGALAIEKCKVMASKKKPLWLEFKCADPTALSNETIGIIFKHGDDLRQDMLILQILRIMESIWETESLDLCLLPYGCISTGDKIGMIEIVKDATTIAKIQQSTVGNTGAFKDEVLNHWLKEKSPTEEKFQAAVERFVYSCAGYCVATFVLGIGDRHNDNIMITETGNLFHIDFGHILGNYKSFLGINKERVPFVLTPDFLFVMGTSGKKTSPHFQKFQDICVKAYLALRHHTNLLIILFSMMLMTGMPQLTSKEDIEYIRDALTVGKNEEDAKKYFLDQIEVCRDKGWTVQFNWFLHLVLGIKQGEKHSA
T2 sequence (P42336 whole entry): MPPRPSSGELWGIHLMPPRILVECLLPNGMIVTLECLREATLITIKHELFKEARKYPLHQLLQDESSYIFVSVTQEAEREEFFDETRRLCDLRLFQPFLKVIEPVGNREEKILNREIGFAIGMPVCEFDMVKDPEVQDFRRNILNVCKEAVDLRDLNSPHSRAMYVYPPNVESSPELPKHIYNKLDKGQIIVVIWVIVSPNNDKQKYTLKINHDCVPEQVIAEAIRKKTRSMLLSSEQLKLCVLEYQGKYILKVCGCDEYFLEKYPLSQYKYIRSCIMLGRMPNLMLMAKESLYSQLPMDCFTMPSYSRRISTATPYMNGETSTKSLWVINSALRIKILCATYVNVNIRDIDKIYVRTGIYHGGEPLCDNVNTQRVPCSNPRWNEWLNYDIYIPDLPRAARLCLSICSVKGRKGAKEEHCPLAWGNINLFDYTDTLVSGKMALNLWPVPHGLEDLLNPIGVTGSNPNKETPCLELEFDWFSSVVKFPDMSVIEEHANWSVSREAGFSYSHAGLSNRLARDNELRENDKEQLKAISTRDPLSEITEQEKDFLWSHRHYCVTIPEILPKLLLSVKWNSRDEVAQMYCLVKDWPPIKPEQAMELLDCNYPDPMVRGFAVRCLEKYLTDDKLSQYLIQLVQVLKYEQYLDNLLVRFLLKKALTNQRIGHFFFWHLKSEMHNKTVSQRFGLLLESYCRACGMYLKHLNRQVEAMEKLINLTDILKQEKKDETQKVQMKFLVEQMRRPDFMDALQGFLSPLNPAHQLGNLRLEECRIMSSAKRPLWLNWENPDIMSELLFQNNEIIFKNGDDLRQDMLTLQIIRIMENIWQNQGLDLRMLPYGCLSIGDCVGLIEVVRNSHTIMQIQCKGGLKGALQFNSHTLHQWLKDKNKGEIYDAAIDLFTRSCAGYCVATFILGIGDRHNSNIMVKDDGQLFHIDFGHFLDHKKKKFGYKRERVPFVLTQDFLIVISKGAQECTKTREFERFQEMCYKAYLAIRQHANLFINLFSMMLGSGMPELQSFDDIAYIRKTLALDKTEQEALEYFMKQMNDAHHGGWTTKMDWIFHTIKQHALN
T2 sequence (P27986 whole entry partner): as the sequence (P27986 whole entry partner) above

Turning to `Cc1cccc2cc([C@H](C)Nc3ncnc4ccccc34)n(-c3ccccc3)c(=O)c12` [Compound 238], the IC50 was < 1 µM in experiment [1], > 10 µM in experiment [2], > 10 µM in experiment [3] and < 0.1 µM in experiment [4].
Turning to `Cc1ccccc1-n1c(Cn2nc(-c3ccc(F)c(O)c3)c3c(N)ncnc32)cc2cccc(F)c2c1=O` [Compound 56], the IC50 was < 0.1 µM in experiment [1], > 10 µM in experiment [2], > 10 µM in experiment [3] and < 0.1 µM in experiment [4].
On to `Cc1ccccc1-n1c(Cn2nc(-c3ccc4oc(N)nc4c3)c3c(N)ncnc32)cc2cccc(C)c2c1=O` [Compound 151], for which the 50% inhibitory concentration (IC50) is < 0.1 µM in experiment [1], < 1 µM in experiment [2], < 10 µM in experiment [3] and < 0.1 µM in experiment [4].
For `CC(=O)Nc1nc2ccc(-c3nn(Cc4cc5cccc(C)c5c(=O)n4-c4ccccc4)c4ncnc(N)c34)cc2o1` [Compound 269], the IC50 in experiment [1] was < 1 µM; in experiment [2], < 10 µM; in experiment [3], < 10 µM; in experiment [4], < 1 µM.
Turning to `CC(=O)Nc1nc2cc(-c3nn(Cc4cc5cccc(C)c5c(=O)n4-c4ccccc4C)c4ncnc(N)c34)ccc2o1` [Compound 251], the IC50 in experiment [1] was < 0.1 µM; in experiment [2] it was < 10 µM; in experiment [3], < 1 µM; in experiment [4], < 0.1 µM.
Consider `Cc1cccc2cc(Cn3nc(-c4cc(O)cc(F)c4)c4c(N)ncnc43)n(-c3ccccc3C(C)C)c(=O)c12` [Compound 95], for which the IC50 in experiment [1] is < 0.1 µM; in experiment [2] it was < 1 µM; in experiment [3], < 1 µM; in experiment [4], < 0.1 µM.
For `Cc1cccc2cc(Cn3nc(/C=C4/CCNC4=O)c4c(N)ncnc43)n(-c3ccccc3F)c(=O)c12` [Compound 172], the IC50 in experiment [1] is > 10 µM; in experiment [2], > 10 µM; in experiment [3] it was > 10 µM; in experiment [4], < 10 µM.
Regarding `Cc1cccc2cc([C@H](C)Nc3ncnc4[nH]nc(C(N)=O)c34)n(-c3ccccc3)c(=O)c12` [Compound 256], the half-maximal inhibitory concentration (IC50) in experiment [1] is < 0.1 µM; in experiment [2], < 10 µM; in experiment [3] it was < 0.1 µM; in experiment [4] it was < 0.1 µM.
Regarding `Cc1cccc2cc(C(C)Nc3ncnc4[nH]cnc34)n(C3CC3)c(=O)c12` (stereo not shown) [Compound 204], the IC50 in experiment [1] is < 0.1 µM; in experiment [2], < 10 µM; in experiment [3], < 1 µM; in experiment [4] it was < 0.1 µM.
As for `C[C@H](Nc1ncnc2[nH]cnc12)c1cc2cccc(Cl)c2c(=O)n1C1CC1` [Compound 270], the IC50 in experiment [1] was < 0.1 µM; in experiment [2] it was < 1 µM; in experiment [3] it was < 0.1 µM; in experiment [4], < 0.1 µM.
With `Cc1cccc2cc(Cn3nc(C(F)F)c4c(N)ncnc43)n(-c3ccccc3)c(=O)c12` [Compound 308], the IC50 is < 1 µM in experiment [1], > 10 µM in experiment [2], < 10 µM in experiment [3] and < 0.1 µM in experiment [4].
For `Cc1cccc2cc([C@H](C)Nc3nc(N)ncc3F)n(-c3ccccc3)c(=O)c12` [Compound 271] the same measures were < 1 µM, > 10 µM, > 10 µM and < 0.1 µM.
With `Cc1cccc2cc(Cn3nc(-c4cn[nH]c4)c4c(N)ncnc43)n(-c3cccc(F)c3)c(=O)c12` [Compound 166], the 50% inhibitory concentration (IC50) was < 1 µM in experiment [1], > 10 µM in experiment [2], > 10 µM in experiment [3] and < 0.1 µM in experiment [4].
As to `Cc1cccc2cc(Cn3nc(-c4cnn(C)c4)c4c(N)ncnc43)n(-c3ccccc3F)c(=O)c12` [Compound 164], the IC50 in experiment [1] is < 10 µM; in experiment [2], > 10 µM; in experiment [3], > 10 µM; in experiment [4] it was < 10 µM.
For the compound `Cc1cccc2cc([C@H](C)Nc3ncc(C(F)(F)F)c(N)n3)n(-c3ccccc3)c(=O)c12` [Compound 325], the concentration for half-maximal inhibition (IC50) in experiment [1] is > 10 µM; in experiment [2], > 10 µM; in experiment [3] it was > 10 µM; in experiment [4], < 10 µM.
For the compound `Cc1cccc2cc(Cn3nc(-c4cc(O)cc(F)c4)c4c(N)ncnc43)n(-c3ccccc3F)c(=O)c12` [Compound 3], the IC50 in experiment [1] was < 0.1 µM; in experiment [2] it was < 10 µM; in experiment [3], < 10 µM; in experiment [4], < 0.1 µM.
Consider `Cc1cccc2cc(Cn3nc(I)c4c(N)ncnc43)n(-c3ccccc3O)c(=O)c12` [Compound 79], for which the concentration for half-maximal inhibition (IC50) is < 0.1 µM in experiment [1], > 10 µM in experiment [2], > 10 µM in experiment [3] and < 0.1 µM in experiment [4].
For `Cc1cccc2cc(C(C)Nc3ncnc4[nH]cnc34)n(-c3ccccc3)c(=O)c12` (stereo not shown) [Compound 210], the IC50 was < 0.1 µM in experiment [1], < 10 µM in experiment [2], < 10 µM in experiment [3] and < 0.1 µM in experiment [4].
As to `Cc1cccc2cc(Cn3nc(-c4ccc5oc(N)nc5c4)c4c(N)ncnc43)n(C3CCC3)c(=O)c12` [Compound 208], the IC50 was < 0.1 µM in experiment [1], < 1 µM in experiment [2], < 1 µM in experiment [3] and < 0.1 µM in experiment [4].
For the compound `Cc1cccc2cc(Cn3nc(C(C)C)c4c(N)ncnc43)n(-c3ccccc3)c(=O)c12` [Compound 317], the IC50 in experiment [1] is > 10 µM; in experiment [2], > 10 µM; in experiment [3] it was > 10 µM; in experiment [4], < 10 µM.
Consider `Cc1ccccc1-n1c(Cn2nc(-c3cccc(F)c3)c3c(N)ncnc32)cc2cccc(C)c2c1=O` [Compound 41], for which the IC50 in experiment [1] was < 1 µM; in experiment [2] it was > 10 µM; in experiment [3] it was > 10 µM; in experiment [4] it was < 10 µM.
Consider `Cc1cccc2cc([C@H](C)Nc3ncnc4[nH]c(O)nc34)n(-c3ccccc3)c(=O)c12` [Compound 263], for which the IC50 in experiment [1], in experiment [2], in experiment [3] and in experiment [4] was > 10 µM in each case.
As for `Cc1cccnc1-n1c(Cn2nc(-c3ccc4oc(N)nc4c3)c3c(N)ncnc32)cc2cccc(C)c2c1=O` [Compound 240], the half-maximal inhibitory concentration (IC50) in experiment [1] was < 0.1 µM; in experiment [2] it was < 10 µM; in experiment [3], < 10 µM; in experiment [4], < 0.1 µM.
In the case of `Cc1ccccc1-n1c(Cn2nc(-c3ccc(O)cc3)c3c(N)ncnc32)cc2cccc(C)c2c1=O` [Compound 36], the IC50 in experiment [1] is < 0.1 µM; in experiment [2] it was > 10 µM; in experiment [3], > 10 µM; in experiment [4] it was < 1 µM.
In the case of `Cc1cccc2cc(Cn3nc(-c4cccc(O)c4)c4c(N)ncnc43)n(-c3ccccc3OCCN3CCOCC3)c(=O)c12` [Compound 109], the 50% inhibitory concentration (IC50) was < 1 µM in experiment [1], > 10 µM in experiment [2], > 10 µM in experiment [3] and < 0.1 µM in experiment [4].
Turning to `Cc1cccc2cc([C@H](C)Nc3ncnc4[nH]nc(Cl)c34)n(C3CC3)c(=O)c12` [Compound 293], the concentration for half-maximal inhibition (IC50) in experiment [1] was < 1 µM; in experiment [2] it was > 10 µM; in experiment [3], < 1 µM; in experiment [4], < 0.1 µM.
For the compound `Cc1ccccc1-n1c(Cn2nc(-c3ccc4nc(N)oc4c3)c3c(N)ncnc32)cc2cccc(C)c2c1=O` [Compound 243], the half-maximal inhibitory concentration (IC50) in experiment [1] is < 0.1 µM; in experiment [2], < 10 µM; in experiment [3], < 10 µM; in experiment [4], < 0.1 µM.
On to `CC(=O)Nc1nc2cc(-c3nn(Cc4cc5cccc(C)c5c(=O)n4-c4ccccc4)c4ncnc(N)c34)ccc2o1` [Compound 253], for which the concentration for half-maximal inhibition (IC50) in experiment [1] is < 0.1 µM; in experiment [2], < 10 µM; in experiment [3], < 0.1 µM; in experiment [4], < 0.1 µM.
Take `Cc1cccc2cc(Cn3nc(-c4cc(O)cc(F)c4)c4c(N)ncnc43)n(-c3ccccc3)c(=O)c12` [Compound 147]: the IC50 is < 0.1 µM in experiment [1], < 1 µM in experiment [2], < 10 µM in experiment [3] and < 0.1 µM in experiment [4].
As for `COc1cc(F)cc(-c2nn(Cc3cc4cccc(C)c4c(=O)n3-c3ccccc3C)c3ncnc(N)c23)c1` [Compound 181], the IC50 in experiment [1] is < 10 µM; in experiment [2] it was > 10 µM; in experiment [3], > 10 µM; in experiment [4], < 1 µM.
Take `Cc1cccc2cc([C@H](C)Nc3ncnc4[nH]cc(F)c34)n(C3CC3)c(=O)c12` [Compound 278]: the IC50 is < 0.1 µM in experiment [1], < 1 µM in experiment [2], < 0.1 µM in experiment [3] and < 0.1 µM in experiment [4].
With `Cc1cccc2cc(C(C)Nc3ncnc4[nH]cnc34)n(C3CCC3)c(=O)c12` (stereo not shown) [Compound 215], the IC50 is < 0.1 µM in experiment [1], > 10 µM in experiment [2], < 10 µM in experiment [3] and < 0.1 µM in experiment [4].
As for `Cc1cccc2cc(Cn3nc(-c4ccc(Cl)c(O)c4)c4c(N)ncnc43)n(C3CCCC3)c(=O)c12` [Compound 71], the IC50 in experiment [1] is < 1 µM; in experiment [2] it was > 10 µM; in experiment [3] it was < 10 µM; in experiment [4] it was < 1 µM.
For `Cc1cccc2cc(Cn3nc(-c4ccc(F)c(O)c4)c4c(N)ncnc43)n(-c3ccccc3F)c(=O)c12` [Compound 9], the concentration for half-maximal inhibition (IC50) was < 1 µM in experiment [1], > 10 µM in experiment [2], > 10 µM in experiment [3] and < 0.1 µM in experiment [4].
As to `Cc1ccccc1-n1c(Cn2nc(/C=C/C(N)=O)c3c(N)ncnc32)cc2cccc(C)c2c1=O` [Compound 174], the IC50 is < 0.1 µM in experiment [1], > 10 µM in experiment [2], < 10 µM in experiment [3] and < 0.1 µM in experiment [4].
Turning to `Cc1cccc2cc([C@H](C)Nc3ncnc4[nH]cc(C(N)=O)c34)n(C3CC3)c(=O)c12` [Compound 287], the IC50 was < 0.1 µM in experiment [1], < 1 µM in experiment [2], < 0.1 µM in experiment [3] and < 0.1 µM in experiment [4].
Regarding `Cc1ccccc1-n1c(Cn2nc(C#CCO)c3c(N)ncnc32)cc2cccc(C)c2c1=O` [Compound 11], the IC50 in experiment [1] was < 1 µM; in experiment [2] it was > 10 µM; in experiment [3], > 10 µM; in experiment [4], < 0.1 µM.

Broadly, the IC50 is the midpoint of a concentration-inhibition curve. A low value points to higher potency.

The record behind these values is patent US20140120083A1, “TREATMENT OF CANCERS USING PI3 KINASE ISOFORM MODULATORS” (INFINITY PHARMACEUTICALS, INC., priority 2012, published 2014).
